Key:
[1] = target: T1, CB1 receptors present in the CNS (Mus musculus, UniProt P47746); assay: Reversion of the analgesic effect of CP-55,940 in tail flick test in mice; type: in vivo; conditions: for reversion of the analgesic effect of CP-55,940: CP-55,940 0.3 mg/kg subcutaneous, FIG. 5
T1 construct: from tissue; host or cells: live CD1 mouse, central nervous system
Experimental: (§1) Male CD1 mice (Charles River Laboratories), weighting 30 to 40 g (7-8 weeks old) and Male Wistar rats (Charles River Laboratories), weighting 260-300 g (7-8 weeks old) at the time of experiment, were housed in a controlled environment. Temperature was maintained at 22±2° C. on a 12-h light/dark cycle (On at 07:00 h and Off at 19:00 h) and food and water were available ad libitum. The experiments were performed during the light phase. The number of mice ranged from 4 to 15 per group in each individual experiment. Animals were always handled in accordance with ethical principles for the evaluation of pain in conscious animals (Zimmerman, 1983) and with the European Communities Council Directive of 24 November 1986 (86/609/ECC), and received approval by the local Ethical Committee.
CP-55,940 (Ref. 0949, Tocris; Wiley et al., 1995) was administrated by subcutaneous route at 0.3 mg/kg in a volume of 5 ml/kg in mice and by intraperitoneal route at 0.5 mg/kg in a volume of 2 ml/kg in rat. NESS-0327 (Ruiu et al., 2003) was administrated by intraperitoneal route at 0.3 mg/kg and 1 mg/kg in a volume of 10 ml/kg in mice. […] All compounds were dissolved using HPMC (Hydroxypropyl methyl cellulose) which was prepared at a concentration of 0.5% in Milli-Q water.
The tail flick test was used to evaluate the antinociceptive effect of compounds. The test was performed as previously described (Moncada et al., 2003 and Robles et al., 1996). A noxious beam of light was focused on the mice tail about 4 cm from its tip, and the tail flick latency was recorded automatically to the nearest 0.1 s. The intensity of the radiant heat source was adjusted to produce latencies between 3-5 sec in vehicle treated mice and 2-4 sec in vehicle treated rats. In order to minimize cutaneous injuries a cut-off time of 10 s was used.
Mice were tested 60 min after subcutaneous administration of CP-55,940 (0.3 mg/kg) or vehicle (HPMC 0.5%).
Data are presented as tail flick latency responses in sec ±S.E.M and as percentage of analgesia ±S.E.M. The values in the control group were compared against those obtained in the treated groups. Statistical analysis to test intergroup comparisons was made using an initial one-way analysis of variant followed by the Newman-Keuls multiple comparison test. The level of significance was set at p<0.05.

[2] = Selectivity for 170 targets
[3] = target: T2, cannabinoid CB1 receptors present in the central nervous system (Rattus norvegicus, UniProt P20272); assay: Prevention of hypothermia produced by CP55,940 in rat; type: in vivo; conditions: CP55,940 0.3 mg/kg ip, FIG. 4
T2 construct: from tissue; host or cells: live Wistar rat, central nervous system
Experimental: Male Wistar rats (220-270 g) were used. Rats were fed ad libitum with pellet standard rodent chow. Animals were maintained on a 12/12 hour light-dark cycle. They were randomized into groups for compound and vehicle dosing. Animals were first dosed, p.o., with vehicle (saline +1 drop of tween) or with the (4S,5S)-5-(4-chlorophenyl)-1-(2,4-dichlorophenyl)-N-(cis-2,6-dimethylpiperidin-1-yl)-4-methyl-4,5-dihydro-1H-pyrazole-3-carboxamide enantiomer (10 or 30 mg/kg) 60 minutes prior to the second administration, i.p., with vehicle or CP 55,940 (0.3 mg/kg). Body temperature was measured using a rectal probe connected to a thermometer (CIBERTEC). Measurements were performed at T=−60, 0, 60, 120 and 240 minutes following CP55,940 administration. CP,55,940 was administered just after the measurement of Body temperature at T=0.
Data were analyzed by a two-way (treatment, time) analysis of variance (ANOVA) with repeated measure on the time factor. A covariate was included to adjust for differences between treatment groups at baseline (Time 0). Comparisons between average treatment profiles were performed by defining appropriate tests for contrasts within the ANOVA analysis. A value of P<0.05 was considered significant. Data analysis was carried out with the SAS/STAT® release 9.1 statistical package (SAS Institute Inc., Cary, N.C.).

[4] = target: T3, CB1 receptors present in the CNS (Rattus norvegicus, UniProt P20272); assay: Reversion of the analgesic effect of CP-55,940 in tail flick test in rat; type: in vivo; conditions: 10 mg/kg oral
T3 construct: from tissue; host or cells: live Wistar rat, central nervous system
Experimental: as §1
CP-55,940 (Ref. 0949, Tocris; Wiley et al., 1995) was administrated by subcutaneous route at 0.3 mg/kg in a volume of 5 ml/kg in mice and by intraperitoneal route at 0.5 mg/kg in a volume of 2 ml/kg in rat. NESS-0327 (Ruiu et al., 2003) was administrated by intraperitoneal route at 0.3 mg/kg and 1 mg/kg in a volume of 10 ml/kg in mice. […]
The tail flick test was used to evaluate the antinociceptive effect of compounds. […] A noxious beam of light was focused on the mice tail about 4 cm from its tip, and the tail flick latency was recorded automatically to the nearest 0.1 s. […]

Human CB1 receptor [5] = target: T4, Human CB1 receptor (Homo sapiens, UniProt P21554); assay: In-vitro determination of affinity to human CB1-receptors ([3H] (+)-CP55,940 radioligand binding, HEK-293 membranes); design: expressed in transfected cells; conditions: [3H] (+)-CP55,940 0.45 nM
Experimental: Binding affinity for CB1 receptor was evaluated according to a modification of the Govaerts S J, Hermans E and Lambert D M. “Comparison of cannabinoid ligand affinities and efficacies in murine tissues and in transfected cells expressing human recombinant cannabinoid receptors”. Eur. J. Pharm. Sci. 2004, 23 (3): 233-43 described method. Human CB1 receptor was transfected into HEK-293 cells and a stable clone obtained and membranes prepared from this clone was used as the membrane source for radioligand binding studies. [3H] (+)-CP55,940 was used as radioligand at a final concentration of 0.45 nM. The incubation buffer was Tris-HCl 50 mM, MgCl2 5 mM, EDTA 1 mM, BSA 0.5%, pH 7.4 and the non-specific binding was determined with 10 μM of HU210. Samples were incubated at 37° C. for 60 min before filtration. Radioactivity on filters was measured with Wallac Winspectral 1414 counter by liquid scintillation in Ecoscint H (National Diagnostics, U.K.).

Human CB1 receptor [6] = target: T4, Human CB1 receptor; assay: In-vitro determination of functional activity to human CB1-receptors ([35S]GTPγS binding in presence of Win 55,212-2, CHO-CB1 membranes); type: biochemical; design: expressed in transfected cells; host or cells: CHO cells, stably transfected, membranes; conditions: for functional behaviour at CB1 receptor (inverse agonist or neutral antagonist): [35S]GTPγS binding relative to basal levels, FIG. 1
Experimental: The binding of [^35S]GTPγS was carried out using a modification of previously published methods Meschler, J. P., Kraichely, D. M., Wilken, G. M AND Howlet, A. C. […] Eur. J. Pharm. Sci. 2004, 23 (3): 233-43.
Human CB1 membranes were prepared from stably transfected CHO cells. Incubation mixtures consisted of CHO-CB1 membrane preparation at a final concentration of 15 μg of protein, compound (dose-response curve between 3 nM and 3 μM, final well concentration), Win 55,212-2 (0.3 μM final well concentration) and binding buffer (50 mM HEPES, pH 7.4, 100 mM KCl, 5 mM MgCl2, 1 mM EDTA, 0.1% wt/vol bovine serum albumin, 5 μM GDP, saponin 10 μg/ml). Subsequently [^35S]GTPγS (0.25 nM) was added, samples were incubated for 60 minutes at 30° C. and finally filtered. Radioactivity on filters was measured with Wallac Microbeta Trilux. Data analysis was performed by using Graph Pad Prism version 3.03 for windows. The bottom plateau of the analyzed sigmoid curves is considered the Emin (Minimal efficacy) value and values of Emin<0 represents inverse agonism of the compounds.

T1 sequence (P47746 whole entry): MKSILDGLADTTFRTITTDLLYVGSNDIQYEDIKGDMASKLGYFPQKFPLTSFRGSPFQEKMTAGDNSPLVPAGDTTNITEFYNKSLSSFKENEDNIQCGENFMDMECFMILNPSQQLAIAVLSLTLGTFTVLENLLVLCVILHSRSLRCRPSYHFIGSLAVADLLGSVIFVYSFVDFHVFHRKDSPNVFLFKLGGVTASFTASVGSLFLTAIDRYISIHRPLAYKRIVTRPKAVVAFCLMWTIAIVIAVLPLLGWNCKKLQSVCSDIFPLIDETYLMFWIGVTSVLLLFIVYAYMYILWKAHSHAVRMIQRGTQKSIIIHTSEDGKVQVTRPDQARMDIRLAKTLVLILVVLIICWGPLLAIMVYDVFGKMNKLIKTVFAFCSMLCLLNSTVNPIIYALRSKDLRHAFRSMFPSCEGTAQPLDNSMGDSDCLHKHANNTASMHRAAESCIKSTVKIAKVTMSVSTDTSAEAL
T4 sequence (P21554 whole entry): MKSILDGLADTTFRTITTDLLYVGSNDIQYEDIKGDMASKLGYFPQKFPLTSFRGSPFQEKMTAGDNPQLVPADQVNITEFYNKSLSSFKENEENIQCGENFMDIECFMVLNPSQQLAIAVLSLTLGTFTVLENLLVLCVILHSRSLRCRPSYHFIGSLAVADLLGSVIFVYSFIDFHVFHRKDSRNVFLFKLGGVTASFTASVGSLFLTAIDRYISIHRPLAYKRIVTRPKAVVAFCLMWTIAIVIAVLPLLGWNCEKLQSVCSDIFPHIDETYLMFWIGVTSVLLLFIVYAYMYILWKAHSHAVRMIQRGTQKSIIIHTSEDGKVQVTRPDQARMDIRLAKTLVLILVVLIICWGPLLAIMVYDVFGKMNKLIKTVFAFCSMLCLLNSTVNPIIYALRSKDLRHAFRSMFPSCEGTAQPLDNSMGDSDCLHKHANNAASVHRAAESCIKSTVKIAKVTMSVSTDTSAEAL
T3 sequence (P20272 whole entry): as the sequence (P47746 whole entry) above, with D95E counted along it
T2 sequence (P20272 whole entry): as the sequence (P47746 whole entry) above, with D95E counted along it

SMILES | reversion of the analgesic effect of CP-55,940 ([1]; 0.3 mg/kg intraperitoneal) | effect by itself in tail flick test ([1]; 0.3 mg/kg intraperitoneal, without CP-55,940) | reversion of the analgesic effect of CP-55,940 ([1]; 1 mg/kg intraperitoneal) | effect by itself in tail flick test ([1]; 1 mg/kg intraperitoneal, without CP-55,940) | selective for 170 targets [2] [%] | prevention of the hypothermia produced by CP55,940 ([3]; 10 mg/Kg p.o.) | prevention of the hypothermia produced by CP55,940 ([3]; 30 mg/Kg p.o.) | effect by itself in tail flick test ([1]; 5 mg/kg intraperitoneal, without CP-55,940) | effect by itself in tail flick test ([1]; 5 mg/kg intraperitoneal, without CP-55,940, listed as (4S,5S)-enantiomer) | effect by itself in tail flick test ([4]; without CP-55,940) | effect by itself in tail flick test ([4]; without CP-55,940, listed as (4S,5S)-enantiomer) | Ki (Human CB1 receptor [5]) [nM] | functional behaviour at CB1 receptor (inverse agonist or neutral antagonist) (Human CB1 receptor [6]) | functional behaviour at CB1 receptor (inverse agonist or neutral antagonist) (Human CB1 receptor [6]; listed as (4S,5S) compound) | Emin (Minimal efficacy) (Human CB1 receptor [6]; [35S]GTPγS binding, Win 55,212-2 0.3 μM, Emin<0 represents inverse agonism) | IC50 (Human CB1 receptor [6]; [35S]GTPγS binding, Win 55,212-2 0.3 μM, read-out: pIC50 (potency) (converted)) [nM] | functional behaviour at CB1 receptor (inverse agonist or neutral antagonist) (Human CB1 receptor [6]; listed as racemate compound)
O=C(NN1CCCCC1)c1nn(-c2ccc(Cl)cc2Cl)c2c1CCCc1cc(Cl)ccc1-2 [NESS-0327] | not at 0.3 mg/kg | Neither NESS-0327 (0.3 mg/kg) nor (1 mg/kg) showed an effect by themselves | significantly inhibited | Neither NESS-0327 (0.3 mg/kg) nor (1 mg/kg) showed an effect by themselves | – | – | – | – | – | – | – | – | – | – | – | – | –
C[C@@H]1C(C(=O)NN2[C@H](C)CCC[C@@H]2C)=NN(c2ccc(Cl)cc2Cl)[C@@H]1c1ccc(Cl)cc1 [(4S,5S)-5-(4-chlorophenyl)-1-(2,4-dichlorophenyl)-N-(cis-2,6-dimethylpiperidin-1-yl)-4-methyl-4,5-dihydro-1H-pyrazole-3-carboxamide] | – | – | – | – | 99 | does not significantly prevent | does not significantly prevent | Neither Rimonabant (5 mg/kg) nor the (4S,5S)-5-(4-chlorophenyl)-1-(2,4-dichlorophenyl)-N-(cis-2,6-dimethylpiperidin-1-yl)-4-methyl-4,5-dihydro-1H-pyrazole-3-carboxamide enantiomer (5 mg/kg) showed an effect by themselves | Neither Rimonabant (5 mg/kg) nor the(4S,5S)-enantiomer (5 mg/kg) showed an effect by themselves | Neither Rimonabant (10 mg/kg) nor the ((4S,5S)-5-(4-chlorophenyl)-1-(2,4-dichlorophenyl)-N-(cis-2,6-dimethylpiperidin-1-yl)-4-methyl-4,5-dihydro-1H-pyrazole-3-carboxamide enantiomer (10 mg/kg) showed an effect by themselves | Neither Rimonabant (10 mg/kg) nor (4S,5S)-enantiomer (10 mg/kg) showed an effect by themselves | 27 ± 10 | neutral antagonist | behaves as a neutral antagonist | −1±8 | 30.2 | –
CC1CCCC(C)N1NC(=O)C1=NN(c2ccc(Cl)cc2Cl)[C@H](c2ccc(Cl)cc2)[C@@H]1C (mixture of isomers) [racemate cis-compound, cis-5-(4-chlorophenyl)-1-(2,4-dichlorophenyl)-N-(2,6-dimethylpiperidin-1-yl)-4-methyl-4,5-dihydro-1H-pyrazole-3-carboxamide, reference compound] | – | – | – | – | – | – | – | – | – | – | – | – | behave as inverse agonists | – | – | – | CB1 inverse agonism
